Measurements reported in patent US20060025474A1, “Bisphenyl compounds useful as vitamin D3 receptor agonists” (priority 2004, published 2006).

Legend:
[1] = system: ovariectomized (OVX) rats; assay: Bone mineral density in the ovariectomized (OVX) rats (1); type: in vivo, Sprague-Dawley rats; conditions: orally five times a week for 4 weeks; for Spinal BMD: L2-L4
Protocol: Bone Mineral Density in the Ovariectomized (OVX) Rats (1)
The compounds of the present invention were prepared as exemplified above, dissolved in a vehicle (medium chain triglyceride, MCT) and diluted to a given concentration. The stock solutions were protected from light and stored at 4° C.
Eight-month-old female Sprague-Dawley (Crl:CD(SD)) rats were purchased from Charles River Japan Inc. (Kanagawa, Japan) and acclimated under standard laboratory conditions at 24±2° C. and 50-60% humidity. The rats were allowed free access to tap water and commercial standard rodent chow CE-2 (Clea Japan Inc., Japan).
Sham-operated (n=8) and the ovariectomized (OVX) rats were used. The OVX rats were divided into each group (n=8) one day after the surgery. In the sham and OVX control groups, rats received the vehicle (MCT) p.o. at a dose of 1 ml/kg body weight (BW) five times a week. Each compound was given orally five times a week for 4 weeks. These animal studies were carried out in accordance with Chugai Pharmaceutical's ethical guidelines for animal care, and the experimental protocols were approved by the animal care committee of the institution.
During the 24 hours from the last administration, urine was collected with metabolic cage, and blood was drawn from the abdominal aorta under ether anesthesia. Blood and urine samples were centrifuged to obtain the supernatant, which were stored at −20° C. until assay. The lumbar vertebrae and femur were removed. The lumbar vertebra and the right femur were stored in 70% ethanol at 4° C. for the measurement of bone mineral density (BMD).
Serum and Urine Biochemistry
Serum calcium (Ca) and inorganic phosphorus (Pi) concentrations were measured with an autoanalyzer (Hitachi 7170, Tokyo, Japan). The serum osteocalcin concentration was measured with Osteocalcin rat ELISA system (Amersham Pharmacia Biotech, Tokyo, Japan). Urinary Ca, Pi, and creatinine (Cre) were measured with an autoanalyzer. Urinary deoxypyridinoline (D-Pyr) was measured using a Metra DPD EIA kit (Quidel Co., USA), and the data were corrected for urinary Cre concentrations.
Measurement of Bone Mineral Density
The second through fourth lumbar vertebaral (L2-L4) BMD (mg/cm^2) and femoral BMD were measured by dual-energy X-ray absorptiometry (DCS-600-EX, Aloka, Japan).

[2] = system: ECAC2 mRNA in Caco-2 cells; type: cell-based
Summary of the method: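 Caco-2 cells grown 4 days, then exposed 1 day at 37° C to compounds in medium with 10% FBS, refreshed twice daily. ECAC2 mRNA by one-step TaqMan RT-PCR, normalized to GAPDH. EC50 from Emax model, expressed as ratio to LG190178 EC50.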

serum Ca ([1]; 0.75 microgram/kg/week) | ECaC-2 mRNA induction activity in Caco-2 cells [2] | serum Ca ([1]; 7.5 microgram/kg/week) | Structure (SMILES) | Spinal BMD ([1]; 0.75 microgram/kg/week) | Spinal BMD ([1]; 7.5 microgram/kg/week)
10.0 mg/dL | 53% |  | CCC(CC)(c1ccc(CCC(O)C(C)(C)C)c(C)c1)c1ccc(OC[C@H](O)CCC(=O)[O-])c(C)c1.[Na+] (stereo partly drawn) [Example 140, 5-(4-{1-Ethyl-1-[4-(3-hydroxy-4,4-dimethyl-pentyl)-3-methyl-phenyl]-propyl}-2-methyl-phenoxy)-4(R)-hydroxy-pentanoic acid sodium salt] | 186.6 mg/cm2 | 
 | 31% | 10.1 mg/dL | CCC(CC)(c1ccc(CCC(O)C(C)(C)C)c(C)c1)c1ccc(OC[C@H](O)CCC(=O)[O-])c(C)c1.[Na+] (stereo partly drawn) [Example 141, 5-(4-{1-Ethyl-1-[4-(3-hydroxy4,4-dimethyl-pentyl)-3-methyl-phenyl]-propyl}-2-methyl-phenoxy)4(R)-hydroxy-pentanoic acid sodium salt] |  | 184.4 mg/cm2
